# Assay results from patent US20130210167A1, “IMMUNOASSAY FOR PYRROLIDINOPHENONES” (RANDOX LABORATORIES LIMITED, priority 2012, published 2013).
# Structures can show the parent of a compound that is named as a salt.
# System: polyclonal antibody raised to Immunogen IV
# Assay: Competitive biochip immunoassay of pyrrolidinophenones and potential cross-reactants (Evidence Investigator)
# Format: binding, sheep
# Conditions: not given
Compound,% Cross-reactivity,% Cross-Reactivity,binding of antibodies of the invention (in words)
"COc1cc(CC(C)N)cc(OC)c1OC.Cl (racemic) [(+/−)-3,4,5-Trimethoxyamphetamine hydrochloride]",<1%,–,–
CCCC(C(=O)c1ccc2ccccc2c1)N1CCCC1.Cl (racemic) [(RS)-1-(2-Naphthyl)-2-(pyrrolidin-l-yl)pentanone HCl],–,44%,–
CCCCC(C(=O)c1ccc(C)cc1)N1CCCC1.Cl (racemic) [(RS)-1-(4-Methylphenyl)-2-(pyrrolidin-1-yl)hexanone HCl],48.4%,–,–
CCC(C(=O)c1ccc(C)cc1)N1CCCC1.Cl (racemic) [(RS)-1-(4-Methylphenyl)-2-(pyrrolidin-l-yl)butanone HCl],–,34%,–
"CCC(C(=O)c1ccc2c(c1)OCO2)N1CCCC1 (racemic) [(RS)-1-(Benzo[d][1,3]dioxol-5-yl)-2-(pyrrolidin-1-yl)butanone HCl]",–,192%,–
"CCCC(C(=O)c1ccc2c(c1)OCO2)N1CCCC1.Cl (racemic) [(RS)-1-(Benzo[d][1,3]dioxol-5-yl)-2-(pyrrolidin-1-yl)pentanone HCl]",100%,100%,–
"CC(C(=O)c1ccc2c(c1)OCO2)N1CCCC1.Cl (racemic) [(RS)-1-(Benzo[d][1,3]dioxol-5-yl)-2-(pyrrolidin-1-yl)propanone HCl]",–,12%,–
"CNC(C)Cc1ccc2c(c1)OCO2 (racemic) [(RS)-1-(Benzo[d][1,3]dioxol-5-yl)-N-methylpropan-2-amine]",–,<1%,–
"CC(N)Cc1ccc2c(c1)OCO2 (racemic) [(RS)-1-(benzo[d][1,3]dioxol-5-yl)propan-2-amine]",–,<1%,–
Cl.NC1(c2ccccc2Cl)CCCCC1=O (racemic) [(±)-Norketamine HCl],<1%,–,–
"CCCC(C(=O)c1ccc(C)cc1)N1CCCC1 (racemic) [Pyrovalerone HCl, (RS)-1-(4-methylphenyl)-2-(1-pyrrolidinyl)pentan-1-one]",44.4%,–,–
"CCC(=O)OC(Cc1ccccc1)(c1ccccc1)C(C)CNC.O=C(O)/C=C\C(=O)O (single isomer, unassigned; (+)) [(+)-Norpropoxyphene maleate]",<1%,–,–
"CN1CCCC1c1cccnc1 (single isomer, unassigned; (-)) [(−)-Nicotine]",<1%,–,–
"Oc1ccccc1O [1,2 Dihydroxybenzene (Catechol), 1,2 Dihydroxybenzene]",<1%,–,–
Cl.c1ccc(C2(N3CCCCC3)CCCCC2)cc1 [1-(1-phenylcyclohexyl)piperidine) HCl],<1%,–,–
Cl.Clc1cccc(N2CCNCC2)c1 [1-(3-Chlorophenyl)piperazine HCl],–,<1%,–
CN1CCN(Cc2ccccc2)CC1.Cl.O [1-Benzyl-4-methylpiperazine HCl monohydrate],<1%,–,–
c1ccc(CN2CCNCC2)cc1 [1-Benzylpiperazine],–,<1%,–
CN1C(=O)CN=C(c2ccccc2F)c2cc(N)ccc21 [7-NH Flunitrazepam],<1%,–,–
CN[C@@H](C)[C@@H](O)c1ccccc1.Cl [(+)-Pseudoephedrine HCl],–,<1%,–
CN1C(=O)CC[C@H]1c1cccnc1 [(−)-Cotinine],<1%,–,–
CC(=O)Nc1ccc(O)cc1 [Acetaminophen],<1%,–,–
CC(NC(C)(C)C)C(=O)c1cccc(Cl)c1 (stereo not shown) [Bupropion HCl],<1%,–,–

Compound,% Cross-reactivity,% Cross-Reactivity,binding of antibodies of the invention (in words)
CCC(NC)C(=O)c1ccc2c(c1)OCO2.Cl (stereo not shown) [Butylone HCl],11.4%,–,able to bind
C[C@H](N)Cc1ccccc1 [D-Amphetamine],–,<1%,–
COc1ccc2c(c1)[C@]13CCCC[C@@H]1[C@H](C2)N(C)CC3 [Dextromethorphan hydrobromide monohydrate],<1%,–,–
CCN(CC)C(C)C(=O)c1ccccc1 (stereo not shown) [Diethylpropion HCl],<1%,–,–
CCO[C@@H]1O[C@H](C(=O)O)[C@@H](O)[C@H](O)[C@H]1O [Ethyl-glucuronide],<1%,–,–
CNC(C)C(=O)c1ccc(F)cc1.Cl (stereo not shown) [Flephedrone HCl],<1%,–,–
CNCCC(Oc1ccc(C(F)(F)F)cc1)c1ccccc1 (stereo not shown) [Fluoxetine HCl],<1%,–,–
O=C(CCCN1CCC(O)(c2ccc(Cl)cc2)CC1)c1ccc(F)cc1 [Haloperidol],<1%,–,–
CC(=O)Oc1ccc2c3c1O[C@H]1[C@@H](OC(C)=O)C=C[C@H]4[C@@H](C2)N(C)CC[C@@]341 [Heroin],<1%,–,–
COc1ccc2c3c1O[C@H]1C(=O)CC[C@H]4[C@@H](C2)N(C)CC[C@]314 [Hydrocodone],<1%,–,–
CC(C)Cc1ccc(C(C)C(=O)O)cc1 (stereo not shown) [Ibuprofen],<1%,–,–
CCCCCn1cc(C(=O)c2cccc3ccccc23)c2ccccc21 [JWH-018],–,<1%,–
CCCCCn1cc(C(=O)Cc2ccccc2OC)c2ccccc21 [JWH-250],–,<1%,–
CCN(CC)C(=O)[C@@H]1C=C2c3cccc4[nH]cc(c34)C[C@H]2N(C)C1 [LSD],<1%,–,–
O=C1Nc2ccc(Cl)cc2C(c2ccccc2Cl)=NC1O (stereo not shown) [Lorazepam],<1%,–,–
CNC(C)C(=O)c1ccc(C)cc1 (stereo not shown) [Mephedrone HCl],–,<1%,–
CCCC(C)(COC(N)=O)COC(N)=O [Meprobamate],<1%,–,–
COc1cc(CCN)cc(OC)c1OC [Mescaline HCl],–,<1%,–
CCC(=O)C(CC(C)N(C)C)(c1ccccc1)c1ccccc1 (stereo not shown) [Methadone],<1%,–,–
CN[C@@H](C)Cc1ccccc1 [Methamphetamine HCl],–,<1%,–
Cc1ccccc1-n1c(C)nc2ccccc2c1=O [Methaqualone],<1%,–,–
CNC(C)C(=O)c1ccc2c(c1)OCO2 (stereo not shown) [Methylone HCl],<1%,–,–
COC(=O)C(c1ccccc1)C1CCCCN1 (stereo not shown) [Methylphenidate HCl],<1%,–,–

Compound,% Cross-reactivity,% Cross-Reactivity,binding of antibodies of the invention (in words)
"C=CCN(CC=C)CCc1c[nH]c2ccc(OC)cc12 [N,N-diallyl-5-methoxytryptamine]",<1%,–,–
Cc1ccc(C(=O)C(C)N)cc1.Cl (stereo not shown) [Nor-mephedrone HCl],<1%,–,–
CNCCCC1(c2ccc(F)cc2)OCc2cc(C#N)ccc21 (stereo not shown) [Norescitalopram],<1%,–,–
CCOC(=O)C1(c2ccccc2)CCNCC1 [Normeperidine],<1%,–,–
CNCCC=C1c2ccccc2CCc2ccccc21 [Nortriptyline HCl],<1%,–,–
COc1ccc2c3c1O[C@H]1C(=O)CC[C@@]4(O)[C@@H](C2)N(C)CC[C@]314 [Oxycodone],<1%,–,–
CCCC(NC)C(=O)c1ccccc1.Cl (stereo not shown) [Pentedrone HCl],<1%,–,–
CCCC(NC)C(=O)c1ccc2c(c1)OCO2.Cl (stereo not shown) [Pentylone HCl],17.4%,–,able to bind
NCCc1ccccc1.O=S(=O)(O)O [Phenethylamine sulphate],<1%,–,–
O=C(O)c1ccccc1O [Salicylic acid],<1%,–,–
COC(=O)[C@@H]1C[C@H](OC(C)=O)C(=O)[C@H]2[C@@]1(C)CC[C@H]1C(=O)O[C@H](c3ccoc3)C[C@]21C [Salvinorin A],–,<1%,–
CN[C@H]1CC[C@@H](c2ccc(Cl)c(Cl)c2)c2ccccc21 [Sertraline HCl],<1%,–,–
COc1cccc(C2(O)CCCCC2CN(C)C)c1 (stereo not shown) [Tramadol HCl],<1%,–,–
Cl.O=c1n(CCCN2CCN(c3cccc(Cl)c3)CC2)nc2ccccn12 [Trazadone HCl],<1%,–,–
CCN(C(C)=O)c1cccc(-c2ccnc3c(C#N)cnn23)c1 [Zaleplon],<1%,–,–
Cc1ccc(-c2nc3ccc(C)cn3c2CC(=O)N(C)C)cc1 [Zolpidem tartrate],<1%,–,–
CN1CCN(C(=O)OC2c3nccnc3C(=O)N2c2ccc(Cl)cn2)CC1 (stereo not shown) [Zopiclone],<1%,–,–
(−)-11-nor-9-Carboxy-delta9-THC,<1%,–,–
(−)-Delta9-THC,<1%,–,–
Dihydroxymephedrone HCl,<1%,–,–
Prolatine,<1%,–,–

# Same assay, conditions: Table 2, further cross-reactivity results; competition with Hapten-A HRP conjugate
row,Compound,% Cross-reactivity
1,O=C(CN1CCCC1)c1ccccc1 [1-Phenyl-2(1-pyrrolidinyl)ethanone],<1%
2,O=C(O)c1c[nH]c2ccccc12 [Indole-3-carboxylic acid],<1%
3,O=C(O)[C@H]1O[C@@H](OCC(Cl)(Cl)Cl)[C@H](O)[C@@H](O)[C@@H]1O [Urochloralic acid],<1%
